In PubChem BioAssay (NCI):
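Where inhibition never reached the appropriate level, the endpoint shown equals the highest concentration tested. Otherwise, values were interpolated linearly from a five-concentration, 48-hour dose response in 96-well plates. Abbreviation: GI50, concentration required for 50% inhibition of growth. At the TGI there is no net growth.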

Key:
Test in all cases: DTP human tumour cell line panel, 48 h
NCI-H460 lung = tested on: NCI-H460 lung
ACHN renal = tested on: ACHN renal
MCF7 breast = tested on: MCF7 breast
SN12C renal = tested on: SN12C renal
SK-MEL-5 melanoma = tested on: SK-MEL-5 melanoma
SK-OV-3 ovarian = tested on: SK-OV-3 ovarian
CAKI-1 renal = tested on: CAKI-1 renal
U251 CNS = tested on: U251 CNS
IGROV1 ovarian = tested on: IGROV1 ovarian
UACC-62 melanoma = tested on: UACC-62 melanoma
SF-268 CNS = tested on: SF-268 CNS
OVCAR-5 ovarian = tested on: OVCAR-5 ovarian
SW-620 colon = tested on: SW-620 colon
HCT-116 colon = tested on: HCT-116 colon
TK-10 renal = tested on: TK-10 renal
SF-295 CNS = tested on: SF-295 CNS
PC-3 prostate = tested on: PC-3 prostate
UO-31 renal = tested on: UO-31 renal
SK-MEL-2 melanoma = tested on: SK-MEL-2 melanoma
COLO 205 colon = tested on: COLO 205 colon
A498 renal = tested on: A498 renal
786-0 renal = tested on: 786-0 renal
T-47D breast = tested on: T-47D breast
HS 578T breast = tested on: HS 578T breast
MOLT-4 leukemia = tested on: MOLT-4 leukemia
SF-539 CNS = tested on: SF-539 CNS
M14 melanoma = tested on: M14 melanoma
UACC-257 melanoma = tested on: UACC-257 melanoma
MDA-MB-231 breast = tested on: MDA-MB-231 breast
SK-MEL-28 melanoma = tested on: SK-MEL-28 melanoma
HOP-62 NSCLC = tested on: HOP-62 NSCLC
DU-145 prostate = tested on: DU-145 prostate
HCC-2998 colon = tested on: HCC-2998 colon
HL-60(TB) leukemia = tested on: HL-60(TB) leukemia
RXF 393 renal = tested on: RXF 393 renal
NCI-H23 lung = tested on: NCI-H23 lung
HT29 colon = tested on: HT29 colon

C=CC[N+]1(CC)CCN=C1CCCCCCCCCCCCCCCCC (centres undefined)
GI50 (NCI-H460 lung): 429 nM | TGI (NCI-H460 lung): 1460 nM | GI50 (ACHN renal): 1190 nM | TGI (ACHN renal): 2520 nM | GI50 (MCF7 breast): 346 nM | TGI (MCF7 breast): 1280 nM | GI50 (SN12C renal): 623 nM | TGI (SN12C renal): 1990 nM | GI50 (SK-MEL-5 melanoma): 355 nM | TGI (SK-MEL-5 melanoma): 1300 nM | GI50 (SK-OV-3 ovarian): 1120 nM | TGI (SK-OV-3 ovarian): 2330 nM | GI50 (CAKI-1 renal): 1200 nM | TGI (CAKI-1 renal): 2630 nM | GI50 (U251 CNS): 386 nM | TGI (U251 CNS): 1470 nM | GI50 (IGROV1 ovarian): 237 nM | TGI (IGROV1 ovarian): 475 nM | GI50 (UACC-62 melanoma): 935 nM | TGI (UACC-62 melanoma): 2300 nM | GI50 (SF-268 CNS): 236 nM | TGI (SF-268 CNS): 610 nM | GI50 (OVCAR-5 ovarian): 472 nM | TGI (OVCAR-5 ovarian): 1640 nM | GI50 (SW-620 colon): 499 nM | TGI (SW-620 colon): 1710 nM | GI50 (HCT-116 colon): 294 nM | TGI (HCT-116 colon): 1150 nM | GI50 (TK-10 renal): 1100 nM | TGI (TK-10 renal): 2440 nM | GI50 (SF-295 CNS): 249 nM | TGI (SF-295 CNS): 936 nM | GI50 (PC-3 prostate): 237 nM | TGI (PC-3 prostate): 702 nM | GI50 (UO-31 renal): 1140 nM | TGI (UO-31 renal): 2430 nM | GI50 (SK-MEL-2 melanoma): 538 nM | TGI (SK-MEL-2 melanoma): 1590 nM | GI50 (COLO 205 colon): 651 nM | TGI (COLO 205 colon): 2290 nM | GI50 (A498 renal): 1440 nM | TGI (A498 renal): 2860 nM | GI50 (786-0 renal): 788 nM | TGI (786-0 renal): 2110 nM | GI50 (T-47D breast): 315 nM | TGI (T-47D breast): 1620 nM | GI50 (HS 578T breast): 432 nM | TGI (HS 578T breast): 1570 nM | GI50 (MOLT-4 leukemia): 1070 nM | TGI (MOLT-4 leukemia): 3510 nM | GI50 (SF-539 CNS): 752 nM | TGI (SF-539 CNS): 2050 nM | GI50 (M14 melanoma): 350 nM | TGI (M14 melanoma): 1280 nM | GI50 (UACC-257 melanoma): 731 nM | TGI (UACC-257 melanoma): 2160 nM | GI50 (MDA-MB-231 breast): 763 nM | TGI (MDA-MB-231 breast): 2190 nM | GI50 (SK-MEL-28 melanoma): 816 nM | TGI (SK-MEL-28 melanoma): 2040 nM | GI50 (HOP-62 NSCLC): 530 nM | TGI (HOP-62 NSCLC): 1750 nM | GI50 (DU-145 prostate): 659 nM | TGI (DU-145 prostate): 2020 nM | GI50 (HCC-2998 colon): 241 nM | TGI (HCC-2998 colon): 797 nM | GI50 (HL-60(TB) leukemia): 562 nM | TGI (HL-60(TB) leukemia): 2070 nM | GI50 (RXF 393 renal): 205 nM | TGI (RXF 393 renal): 836 nM | GI50 (NCI-H23 lung): 119 nM | TGI (NCI-H23 lung): 589 nM | GI50 (HT29 colon): 375 nM | TGI (HT29 colon): 1240 nM
